One assay has as its target T1, hCXCR4 (Homo sapiens, UniProt P61073).
T1 construct: The CXCR4-Rluc8 fusion protein corresponds to CXCR4 isoform b (NCBI: NM_003467.2); expressed in transfected cells; host or cells: HEK293T
In words: BRET β-arrestin2 recruitment to hCXCR4 in HEK293T cells. The format is cell-based. Particulars: in the presence or absence of 100 nM CXCL12. The text has this: The NLuc-ACKR3 plasmid was a kind gift from Prof Hill (Nottingham University, Nottingham, United Kingdom),[31] […] The mVenus-CAAX and the hACKR3-NLuc constructs have been described by Zarca et al.[23] The sequence of the used ACKR3 constructs corresponds to National Center for Biotechnology Information (NCBI) database entry NM_020311.3. Radioligand binding studies used a mammalian expression vector pcDEF3 encoding ACKR3, N-terminally fused to an HA-tag and C-terminally fused to a triple Alanine tag (NotI). This construct was the template for the C-terminal ACKR3 fusion with the luminescent Rluc8 protein (NCBI: EF446136.1). The CXCR4-Rluc8 fusion protein corresponds to CXCR4 isoform b (NCBI: NM_003467.2) fused at the C-terminus with a triple Alanine linker (NotI) before the Rluc8 protein.
For 1·10^6 HEK293T cells, a transfection mix consisting of 2 μg plasmid DNA, 12 μg linear PEI in a total volume of 200 μL 150 mM NaCl was made and thoroughly vortexed. The transfection mix was incubated for 15 minutes and consequently added to a cell suspension with a final concentration of 3·10^5 cells/mL. […]
Fig. 2 VUF16840 inhibits constitutive as well as agonist induced β-arrestin2 recruitment to ACKR3. […] Subsequently, β-arrestin2 recruitment to hACKR3 was detected by NanoBiT complementation. […]
A general note: BRET reads energy transfer from a luciferase to a nearby fluorophore.

The test system of a further assay is D3-ACKR3+ cells. Kind of assay: CXCL12 uptake in ACKR3-overexpressing hCMEC/D3 cells. The format is cell-based, human. The text has this: Human CMEC (D3) cells (CVCL_U985) stably overexpressing ACKR3 and empty vector control were generated by retroviral transductions. The lentiviral expression vector encoding the human ACKR3 was created by cloning the ACKR3 gene (NM_020311.3 from GenScript) in the restriction sites Nhe1/Sma1 of the pLV-LifeAct (a kind gift of Dr Niels Heemskerk). Lentiviral particles were packaged in HEK293T cells, cultured in Dulbecco’s modified Eagle’s medium containing 10% fetal calf serum, 1% penicillin/streptomycin (ThermoFisher Scientific) at 37 °C in a 5% CO2 incubator. Lentiviral expression and packaging vectors were introduced using calcium phosphate transfection. […] Supernatant was taken off, cells were washed 1× with medium and CXCL12-A647 signal in cells was measured using a BioTek Cytation microplate reader (Agilent). […]
The sigmoidal concentration-dependent displacement of binding of the probes [^3H]VUF15485 and CXCL12-A647 by unlabeled ligands were analyzed using GraphPad Prism 8, by fitting a one-site binding model to the data, to determine the pIC50. Mean pIC50 values were determined by averaging fitted values from individual experiments. […] Mean pEC50 values and pIC50 values were determined by averaging fitted values from individual experiments. […]

The values that follow come from article PMC12799421, “Inhibition of constitutive activity of the atypical chemokine receptor 3 by the small-molecule inverse agonist VUF16840” (Molecular Pharmacology, 2025).

T1 sequence (P61073 whole entry, the tested form may be a part, canonical isoform): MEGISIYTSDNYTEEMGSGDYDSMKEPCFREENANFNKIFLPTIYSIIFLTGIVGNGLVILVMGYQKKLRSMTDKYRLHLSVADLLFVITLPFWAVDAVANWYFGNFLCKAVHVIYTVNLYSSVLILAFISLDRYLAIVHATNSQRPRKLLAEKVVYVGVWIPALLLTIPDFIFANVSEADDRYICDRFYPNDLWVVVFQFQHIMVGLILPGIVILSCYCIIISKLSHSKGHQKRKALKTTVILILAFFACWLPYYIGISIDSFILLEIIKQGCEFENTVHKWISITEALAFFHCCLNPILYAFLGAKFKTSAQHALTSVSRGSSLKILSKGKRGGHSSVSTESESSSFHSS

Regarding `COc1ccccc1CCNC(=O)C1CN(C2CCCCC2)CCC1NC(=O)c1cc(-c2ccc(F)cc2F)on1` (stereo not drawn) [VUF16840], on hCXCR4, the “effect on β-arrestin2 recruitment to CXCR4” value is on record as “did not affect”. Moreover, in the assay on D3-ACKR3+ cells (3 nM CXCL12-AF647 60 minutes, 1, 10 or 100 nM VUF16840), the “CXCL12-AF647 uptake (mean fluorescent intensity)” value is given as “concentration-dependent inhibition”. In addition, the “uptake of CXCL12-AF647 (confocal microscopy)” value with D3-ACKR3+ cells (3 nM CXCL12-AF647, 100 nM VUF16840) was “abolished”.
